# Measured values from patent publication US20150175603A1, “TRICYCLIC COMPOUNDS AS KAT II INHIBITORS” (PFIZER INC., priority 2012, published 2015).
# pIC50: −log10 of the molar value. Structures can show the parent of a compound that is named as a salt.
# Molecular target: human KAT II (hKAT II) enzyme (Homo sapiens, UniProt Q8N5Z0)
# Assay: KAT II Inhibition Spectra Assay
# Assay type: biochemical
# Details: single determination unless marked a (geometric mean of 2-4 determinations); decrease in OD370, L-kynurenine substrate, 37° C. for 15-20 h; hydrochloride salt; read-out: KATII IC50
# Description: KAT II Inhibition Spectra Assay
# Formation of kynurenic acid (KYNA) is indirectly assessed by a decrease in light absorbance at 370 nm (OD370) as the L-kynurenine (KYN) substrate is converted by the human KAT II (hKAT II) enzyme into KYNA. An inhibitor would therefore inhibit the decrease in OD370.
# The protocol was performed by placing the following reagents into a Costar 384 well black plate (30 μL total assay volume/well): • 10 μL of 3× concentrated compound; • 10 μL of 3× concentrated substrate mix (BGG (Sigma G-5009); 3 mM L-Kynurenine in 150 mM Tris Acetate (Sigma K3750); 3 mM α-ketoglutaric acid in 150 mM Tris Acetate (Sigma K2010); and 210 μM pyridoxal 5-phosphate (PLP) in 150 mM Tris Acetate (Sigma 9255)); and • 10 μL of 3× concentrated enzyme (15 nM enzyme in 150 mM Tris Acetate with 0.3% bovine serum).
# Plates were sealed and incubated at 37° C. for 15-20 h before reading OD370 on a SpectraMax Plus plate reader. IC50s were generated by comparing the efficacy of compounds across a concentration range to inhibit a reduction in the OD370 value relative to assay wells with DMSO added in place of concentrated compound. Biological data for the Examples may be found in Table 2.
# human KAT II (hKAT II) enzyme, sequence (Q8N5Z0 30-425): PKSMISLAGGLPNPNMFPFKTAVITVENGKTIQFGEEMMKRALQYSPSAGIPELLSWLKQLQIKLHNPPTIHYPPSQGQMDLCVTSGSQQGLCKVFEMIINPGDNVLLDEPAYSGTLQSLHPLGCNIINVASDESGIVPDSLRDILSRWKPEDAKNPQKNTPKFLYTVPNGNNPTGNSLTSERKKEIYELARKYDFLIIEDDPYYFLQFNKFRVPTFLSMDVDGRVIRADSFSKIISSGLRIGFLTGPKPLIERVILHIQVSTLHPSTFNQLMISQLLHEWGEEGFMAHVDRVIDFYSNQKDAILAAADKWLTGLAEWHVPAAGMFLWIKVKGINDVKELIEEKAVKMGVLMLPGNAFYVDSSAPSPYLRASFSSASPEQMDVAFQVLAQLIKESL
row,Structure (SMILES),pIC50
1,"COc1cccc(Oc2ccc3c(c2)CC(N)c2n[nH]c(=O)n2-3)c1 (single isomer, unassigned; ent-1) [Example 1, 4-Amino-7-(3-methoxyphenoxy)-4,5-dihydro[1,2,4]triazolo[4,3-a]quinolin-1(2H)-one ENT-1, hydrochloride salt]",6.73

# Same assay, conditions: single determination unless marked a (geometric mean of 2-4 determinations); decrease in OD370, L-kynurenine substrate, 37° C. for 15-20 h; read-out: KATII IC50
row,Structure (SMILES),pIC50
1,"NC1Cc2cc(Cc3ccccc3)ccc2-n2c1n[nH]c2=O (centres unmarked) [Example 44, 4—amino—7—benzyl—4,5—dihydro[1,2,4]triazolo[4,3—a]quinolin—1(2H)—one, hydrochloride salt]",6.37
2,"COc1cncc(-c2ccc3c(c2)CC(N)c2n[nH]c(=O)n2-3)c1 (centres unmarked) [Example 13, 4—amino—7—(5—methoxypyriclin—3—yl)—4,5—dihydro[1,2,4]triazolo[4,3—a]quinolin—1(2H)—one, trifluoroacetate salt]",6.17
3,"NC1Cc2cc(-c3cccc4cnccc34)ccc2-n2c1n[nH]c2=O (centres unmarked) [Example 12, 4—amino—7—(isoquinolin—5—yl)—4,5—dihydro[1,2,4]triazolo[4,3—a]quinolin—1(2H)—one, trifluoroacetate salt]",6.48
4,"NC1Cc2cc(-c3ccccc3OC(F)(F)F)ccc2-n2c1n[nH]c2=O (centres unmarked) [Example 37, 4—amino—7—[2—(trifluoromethoxy)phenyl]—4,5—dihydro[1,2,4]triazolo[4,3—a]quinolin—1(2H)—one, trifluoroacetate salt]",6.28
5,"NC1Cc2cc(Oc3ccccc3)ncc2-n2cnnc21 (centres unmarked) [Example 7, 7-Phenoxy-4,5-dihydro[1,2,4]triazolo[4,3-a][1,7]naphthyridin-4-amine, hydrochloride salt]",6.38
6,"NC1Cc2cc(-c3cccc(OC(F)(F)F)c3)ccc2-n2c1n[nH]c2=O (centres unmarked) [Example 23, 4—amino—7—[3—(trifluoromethoxy)pheny1]—4,5—dihydro[1,2,4]triazolo[4,3—a]quinolin—1(2H)—one, trifluoroacetate salt]",6.16
7,"Cn1nccc1-c1ccc2c(c1)CC(N)c1n[nH]c(=O)n1-2 (centres unmarked) [Example 36, 4—amino—7—(1—methyl—1H—pyrazol—5—yl)—4,5—dihydro[1,2,4]triazolo[4,3—a]quinolin—1(2H)—one, trifluoroacetate salt]",6.20
8,"COc1ccc(-c2ccc3c(c2)CC(N)c2n[nH]c(=O)n2-3)cn1 (centres unmarked) [Example 22, 4—amino—7—(6—methoxypyridin—3—yl)—4,5—dihydro[1,2,4]triazolo[4,3—a]quinolin—1(2M—one, trifluoroacetate salt]",5.72
9,"NC1Cc2cc(-c3ccccc3C(F)(F)F)ccc2-n2c1n[nH]c2=O (centres unmarked) [Example 40, 4—amino—7—[2—(trifluoromethyl)phenyl]—4,5—dihydro[1,2,4]triazolo[4,3—a]quinolin—1(2H)—one, trifluoroacetate salt]",6.49
10,"COc1cc2c(cc1Cc1ccccc1)CC(N)c1nncn1-2 (centres unmarked) [Example 46, 7—benzyl—8—methoxy—4,5—dihydro[1,2,4]triazolo[4,3—a]quinolin—4—amine, hydrochloride salt]",5.95
11,"COc1cccc(Oc2ccc3c(c2)CC(N)c2nncn2-3)c1 (single isomer, unassigned; ent-1) [Example 4, 7-(3-Methoxyphenoxy)-4,5-dihydro[1,2,4]triazolo[4,3-a]quinolin-4-amine, ENT-1]",6.97
12,"NC1Cc2cc(Oc3ccccc3)cnc2-n2c1n[nH]c2=O (single isomer, unassigned; ent-1) [Example 2, 6-Amino-3-phenoxy-6,8-dihydro[1,2,4]triazolo[4,3-a][1,8]naphthyridin-9(5H)-one, ENT-1]",7.23
13,"NC1Cc2cc(-c3ccc(Cl)cc3Cl)ccc2-n2c1n[nH]c2=O (centres unmarked) [Example 35, 4—amino—7—(2,4—dichlorophenyl)—4,5—dihydro[1,2,4]triazolo[4,3—a]quinolin—1(2H)—one, trifluoroacetate salt]",5.86
14,"Cc1cc(-c2ccc3c(c2)CC(N)c2n[nH]c(=O)n2-3)cnc1F (centres unmarked) [Example 43, 4—amino—7—(6—fluoro—5—methylpyridin—3—yl)—4,5—dihydro[1,2,4]triazolo[4,3—a]quinolin—1(2H)—one, trifluoroacetate salt]",6.58
15,"COc1cccc(Oc2ccc3c(c2)CC(N)c2n[nH]c(=O)n2-3)c1 (single isomer, unassigned; ent-2) [Example C9, 4-amino-7-(3-methoxyphenoxy)-4,5-dihydro[1,2,4]triazolo[4,3-a]quinolin-1(2H)-one ENT-2, hydrochloride salt]",5.43
16,"NC1Cc2cc(Oc3cccc(C(F)(F)F)c3)ccc2-n2c1n[nH]c2=O (centres unmarked) [Example 3, 4-amino-7-[3-(trifluoromethyl)phenoxy]-4,5-dihydro[1,2,4]triazolo[4,3-a]quinolin-1(2H)-one, hydrochloride salt]",7.04
17,"CC(C)Oc1cccc(-c2ccc3c(c2)CC(N)c2n[nH]c(=O)n2-3)c1 (centres unmarked) [Example 30, 4—amino—7—[3—(propan—2—yloxy)phenyl]—4,5—dihydro[1,2,4]triazolo[4,3—a]quinolin—1(2H)—one, trifluoroacetate salt]",6.27
18,"CCOc1ccc(Cl)cc1-c1ccc2c(c1)CC(N)c1n[nH]c(=O)n1-2 (centres unmarked) [Example 39, 4—amino—7—(5—chloro—2—ethoxyphenyl)—4,5—dihydro[1,2,4]triazolo[4,3—a]quinolin—1(2H)—one, trifluoroacetate salt]",6.01
19,"COc1cccc(Oc2ccc3c(c2)CC(N)c2nncn2-3)c1 (single isomer, unassigned; ent-2) [Example 5, 7-(3-Methoxyphenoxy)-4,5-dihydro[1,2,4]triazolo[4,3-a]quinolin-4-amine, ENT-2]",5.91
20,"CCOc1cc(-c2ccc3c(c2)CC(N)c2n[nH]c(=O)n2-3)ccn1 (centres unmarked) [Example 17, 4—amino—7—(2—ethoxypyridin—4—yl)—4,5—dihydro[1,2,4]triazolo[4,3—a]quinolin—1(2H)—one, trifluoroacetate salt]",5.74
21,"Cn1cc2c(-c3ccc4c(c3)CC(N)c3n[nH]c(=O)n3-4)cccc2n1 (centres unmarked) [Example 41, 4—amino—7—(2—methyl—2H—indazol—4—yl)—4,5—dihydro[1,2,4]triazolo[4,3—a]quinolin—1(2H)—one, trifluoroacetate salt]",5.97
22,"NC1Cc2cc(Oc3cccc(C(F)(F)F)c3)ccc2-n2cnnc21 (centres unmarked) [Example 10, 7—[3—(trifluoromethyl)phenoxy]—4,5—dihydro[1,2,4]triazolo[4,3—a]quinolin—4—amine, hydrochloride salt]",6.73
23,"NC1Cc2cc(Oc3ccccc3)cnc2-n2cnnc21 (single isomer, unassigned) [Example 8, 3—phenoxy—5,6—dihydro[1,2,4]triazolo[4,3—a][1,8]naphthyridin—6—amine ENT—1]",6.54
24,"Cc1ccccc1-c1ccc2c(c1)CC(N)c1n[nH]c(=O)n1-2 (centres unmarked) [Example 31, 4—amino—7—(2—methylphenyl)—4,5—dihydro[1,2,4]triazolo[4,3—a]quinolin—1(2H)—one, trifluoroacetate salt]",6.18
25,"NC1Cc2cc(-c3cccc(C(F)(F)F)c3)ccc2-n2c1n[nH]c2=O (centres unmarked) [Example 27, 4—amino—7—[3—(trifluoromethyl)phenyl]—4,5—dihydro[1,2,4]triazolo[4,3-a]quinolin—1(2H)—one, trifluoroacetate salt]",6.67
